Assay results reported in patent US6596772B1, “Phosphate mimics and methods of treatment using phosphatase inhibitors” (Sugen, Inc., priority 1999, dated 2003).
Like-named read-outs stand apart in the source and are kept apart here.

Experiments:
Test in all cases: PTP IC50 assay, pNPP or FDP as substrate
Type in all cases: biochemical
PTP 1B = target: T1, PTP 1B (Homo sapiens, UniProt P18031)
T1 construct: made in house; host or cells: Sf-9 insect cells (pFastBac-G2T)
T1 sequence (P18031 1-435): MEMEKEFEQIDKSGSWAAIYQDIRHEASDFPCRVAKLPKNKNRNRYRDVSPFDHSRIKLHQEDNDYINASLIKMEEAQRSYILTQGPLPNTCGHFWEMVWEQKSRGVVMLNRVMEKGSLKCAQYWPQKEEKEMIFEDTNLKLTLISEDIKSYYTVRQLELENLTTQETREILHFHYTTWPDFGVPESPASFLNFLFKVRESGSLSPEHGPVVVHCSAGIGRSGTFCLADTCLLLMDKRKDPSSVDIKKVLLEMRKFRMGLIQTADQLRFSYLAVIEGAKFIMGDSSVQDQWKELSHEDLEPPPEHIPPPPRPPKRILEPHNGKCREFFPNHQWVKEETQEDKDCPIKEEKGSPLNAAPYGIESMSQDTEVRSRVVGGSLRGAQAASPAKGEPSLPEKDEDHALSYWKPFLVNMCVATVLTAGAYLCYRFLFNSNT
Method: (§1) The following in vitro assay procedure is preferred to determine the level of activity and effect of the different compounds of the present invention on one or more of the PTPs. Similar assays can be designed along the same lines for any PTP using techniques well known in the art.
(§2) The catalytic assays described herein are performed in a 96-well format. The general procedure begins with the determination of PTP optimal pH using a three-component buffer system that minimizes ionic strength variations across a wide range of buffer pH. Next, the Michaelis-Menten constant, or Km, is determined for each specific substrate-PTP system. This Km value is subsequently used as the substrate reaction concentration for compound screening. Finally, the test PTP is exposed to varying concentrations of compound for fifteen minutes and allowed to react with substrate for ten minutes. The results are plotted as percent inhibition versus compound concentration and the IC50 interpolated from the plot.
(§3) All assays were performed using pNPP or FDP as substrate. The optimum pH was determined for each PTP used.
(§4) PTPase activity was assayed at 25° C. in a 100-μl reaction mixture containing an appropriate concentration of pNPP or FDP as substrate. The reaction was initiated by addition of the PTP and quenched after 10 min by addition of 50 μl of IN NaOH. The non-enzymatic hydrolysis of the substrate was corrected by measuring the control without the addition of the enzyme. The amount of p-nitrophenol produced was determined from the absorbance at 410 nm. To determine the kinetic parameter, Km, the initial velocities were measured at various substrate concentrations and the data were fitted to the Michaelis equation where velocity=(Vmax*[S])/(Km+[S]), and [S]=substrate reaction concentration.
(§5) The effect of the compounds on PTP was evaluated at 25° C. using pNPP or FDP as substrate. PTP was pre-incubated for fifteen minutes with various concentrations of compound. Substrate was then added at a fixed concentration (usually equal to the Km previously calculated). After 10 minutes, NaOH was added to stop the reaction. The hydrolysis of pNPP was followed at 410 nm on the Biotek Powerwave 200 microplate scanning spectrophotometer. The percent inhibition was calculated as follows: Percent Inhibition=[(control signal−compound signal)/control signal] ×100%. The IC50 was then determined by interpolation of a percent inhibition versus compound concentration plot.
(§6) Plasmids designed for bacterial GST-PTP fusion protein expression were derived by insertion of PCR-generated human PTP fragments into pGEX vectors (Pharmacia Biotech). Several of these constructs were then used to subclone phosphatases into pFastBac-1for expression in Sf-9 insect cells. Oligonucleotides used for the initial amplification of PTP genes are shown below. The cDNAs were prepared using the Gilbo BRL superscript preamplification system on RNAs purchased from Clontech.
The PTP1b cDNA was amplified from human placenta single strand cDNA (Clontech RNA) using the following oligonucleotides: 5′oligo: 5′-[…] (SEQ ID NO: 4) 3′oligo: 5′-[…] (SEQ ID NO: 5) It was subsequently ligated into pFasBac G2TBamH1Xba-1 sites.

PTP SIGMA = target: T2, PTP SIGMA (Homo sapiens, UniProt Q13332)
T2 construct: made in house; host or cells: E. coli BL-21 (pGEX 6P-1)
T2 sequence (Q13332 1320-1660 limits assumed): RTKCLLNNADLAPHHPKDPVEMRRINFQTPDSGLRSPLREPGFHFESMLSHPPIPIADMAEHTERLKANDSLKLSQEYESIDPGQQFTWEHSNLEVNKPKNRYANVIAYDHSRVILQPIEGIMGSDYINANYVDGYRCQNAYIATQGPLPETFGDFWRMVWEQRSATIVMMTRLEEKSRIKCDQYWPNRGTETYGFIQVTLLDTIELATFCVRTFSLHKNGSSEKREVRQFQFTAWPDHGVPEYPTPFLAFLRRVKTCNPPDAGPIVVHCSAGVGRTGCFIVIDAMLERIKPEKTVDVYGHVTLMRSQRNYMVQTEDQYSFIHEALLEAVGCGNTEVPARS
Method: as §1, §2, §3, §4, §5, §6
The PTP Sigma cDNA was amplified from human brain single strand cDNA (Clontech RNA) using the following oligonucleotides: 5′oligo: 5′-[…]-3′ (SEQ ID NO: 12) 3′oligo: 5′-[…]-3′ (SEQ ID NO: 13) and subsequently ligated into pGex 6P-1 Eco RI/Xho I sites.

PTP MU = target: T3, PTP MU (Homo sapiens, UniProt P28827)
T3 construct: made in house; host or cells: E. coli BL-21 (pGEX 6P-1)
T3 sequence (P28827 831-1186 limits assumed): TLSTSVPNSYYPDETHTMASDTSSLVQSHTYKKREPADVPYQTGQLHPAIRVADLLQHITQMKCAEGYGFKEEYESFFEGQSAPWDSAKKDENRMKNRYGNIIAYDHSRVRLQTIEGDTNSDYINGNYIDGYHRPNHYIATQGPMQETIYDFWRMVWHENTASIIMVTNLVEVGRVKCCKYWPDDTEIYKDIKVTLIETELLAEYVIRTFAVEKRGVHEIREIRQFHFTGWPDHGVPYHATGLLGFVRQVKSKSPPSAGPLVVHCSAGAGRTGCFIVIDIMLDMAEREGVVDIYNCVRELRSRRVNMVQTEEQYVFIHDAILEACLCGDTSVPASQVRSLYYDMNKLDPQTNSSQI
Method: as §1, §2, §3, §4, §5, §6
The PTP Mu cDNA was amplified from a human lung cDNA library (Clontech) using the following oligonucleotides; 5′oligo: 5′-[…]-3′ (SEQ ID NO: 18) 3′oligo: 5′-[…]-3′ (SEQ ID NO: 19) It was subsequently ligated into the Eco RI/Xho I sites of pGEX 6P-1.

[1] = pNPP or FDP as substrate, 25° C., read-out: PTP IC50 1B
[2] = pNPP or FDP as substrate, 25° C., read-out: PTP IC50 Sigma
[3] = pNPP or FDP as substrate, 25° C., read-out: PTP IC50 Mu

Row | SMILES | IC50 (PTP 1B; [1]) | IC50 (PTP SIGMA; [2]) | IC50 (PTP MU; [3]) | further results
1 | O=C(Cc1ccccc1CC(=O)Nc1cccc(S(=O)(=O)C(F)(F)F)c1)Nc1cccc(S(=O)(=O)C(F)(F)F)c1 [Example 20, N-(3-Trifluoromethanesulfonyl-phenyl)-2-{2-[(3-trifluoromethanesulfonyl-phenylcarbamoyl)-methyl]-phenyl}-acetamide] | 43.3 µM | 22.9 µM | 37.9 µM | –
2 | O=C(Cc1cccc(CC(=O)Nc2cccc(S(=O)(=O)C(F)(F)F)c2)c1)Nc1cccc(S(=O)(=O)C(F)(F)F)c1 [Example 21, N-(3-Trifluoromethanesulfonyl-phenyl)-2-{3-[(3-trifluoromethanesulfonyl-phenylcarbamoyl)-methyl]-phenyl}-acetamide] | 35.3 µM | 21.1 µM | 47.7 µM | –
3 | O=C(Cc1ccc(CC(=O)Nc2cccc(S(=O)(=O)C(F)(F)F)c2)cc1)Nc1cccc(S(=O)(=O)C(F)(F)F)c1 [Example 22, N-(3-Trifluoromethanesulfonyl-phenyl)-2-{4-[(3-trifluoromethanesulfonyl-phenylcarbamoyl)-methyl]-phenyl}-acetamide] | 25.7 µM | 7.8 µM | 17.4 µM | –
4 | O=[N+]([O-])c1cc(S(=O)(=O)C(F)(F)F)ccc1Oc1cc(CN2CCOCC2)c(Oc2ccc(S(=O)(=O)C(F)(F)F)cc2[N+](=O)[O-])cc1CN1CCOCC1 [Example 23, 3,6-Bis-(morpholin-4-ylmethyl)-2,5-bis-(2-nitro-4-trifluoromethanesulfonyl-phenoxy)-benzene] | 11.6 µM | 8.5 µM | 18.3 µM | –
5 | CN(C)CC(COc1ccc(S(=O)(=O)C(F)(F)F)cc1[N+](=O)[O-])Oc1ccc(S(=O)(=O)C(F)(F)F)cc1[N+](=O)[O-] (centres unmarked) [Example 24, [2,3-Bis-(2-nitro-4-trifluoromethanesulfonyl-phenoxy)-propyl]-dimethyl-amine] | > 100 µM | 53.5 µM | > 100 µM | –
6 | CCNc1ccc(S(=O)(=O)C(F)(F)F)cc1NC(=O)Cc1ccc(S(C)(=O)=O)cc1 [Example 25, N-(2-Ethylamino-5-trifluoromethanesulfonyl-phenyl)-2-(4-methanesulfonyl-phenyl)-acetamide] | 16.4 µM | > 71 µM | 48.8 µM | –
7 | CCOC(=O)c1cc(Oc2ccc(S(=O)(=O)C(F)(F)F)cc2[N+](=O)[O-])c(C(=O)OCC)cc1O [Example 26, 2-Hydroxy-5-(2-nitro-4-trifluoromethanesulfonyl-phenoxy)-terephthalic acid diethyl ester] | > 100 µM | 69 µM | 65 µM | –
8 | O=C(O)Cc1ccccc1CC(=O)Nc1cccc(S(=O)(=O)C(F)(F)F)c1 [Example 27, {2-[(3-Trifluoromethanesulfonyl-phenylcarbamoyl)-methyl]-phenyl}-acetic acid] | > 100 µM | > 100 µM | > 100 µM | –
9 | O=C(O)Cc1cccc(CC(=O)Nc2cccc(S(=O)(=O)C(F)(F)F)c2)c1 [Example 28, {3-[(3-Trifluoromethanesulfonyl-phenylcarbamoyl)-methyl]-phenyl}-acetic acid] | 27.6 µM | 45.1 µM | > 100 µM | –
10 | O=C(O)Cc1ccc(CC(=O)Nc2cccc(S(=O)(=O)C(F)(F)F)c2)cc1 [Example 29, {4-[(3-Trifluoromethanesulfonyl-phenylcarbamoyl)-methyl]-phenyl}-acetic acid] | 35.4 µM | 60.6 µM | > 100 µM | –
11 | NC(=O)c1cc(Oc2ccc(S(=O)(=O)C(F)(F)F)cc2[N+](=O)[O-])cc(Oc2ccc(S(=O)(=O)C(F)(F)F)cc2[N+](=O)[O-])c1 [Example 30, 3,5-Bis-(2-nitro-4-trifluoromethanesulfonyl-phenoxy)-benzamide] | – | – | – | IC50 (PTP 1B; PTP IC50 1B, pNPP or FDP as substrate, 25° C.): > 100 µM; IC50 (PTP SIGMA; PTP IC50 Sigma, pNPP or FDP as substrate, 25° C.): 26.5 µM; IC50 (PTP MU): 28.4 µM
12 | O=C(O)c1cc(Oc2ccc(S(=O)(=O)C(F)(F)F)cc2)cc(Oc2ccc(S(=O)(=O)C(F)(F)F)cc2)c1 [Example 31, 3,5-Bis-(4-trifluoromethanesulfonyl-phenoxy)-benzoic acid] | 6.2 µM | 7.7 µM | 8.7 µM | –
13 | O=S(=O)(Nc1ccc(CCc2ccc(NS(=O)(=O)C(F)(F)F)cc2)cc1)C(F)(F)F [Example 66, 1,2-Bis(4-trifluoromethylsulfonamidophenyl)ethane] | 60.4 µM | > 100 µM | 70.9 µM | –
14 | Cc1cc(NS(=O)(=O)C(F)(F)F)ccc1CCc1ccc(NS(=O)(=O)C(F)(F)F)cc1C [Example 67, 1,2-Bis(2-methyl-4-trifluoromethylsulfonamidophenyl)ethane] | 35 µM | 41.4 µM | 41.3 µM | –
15 | CC(C)(COc1ccc(NS(=O)(=O)C(F)(F)F)cc1)COc1ccc(NS(=O)(=O)C(F)(F)F)cc1 [Example 68, 1,3-Bis(4-trifluoromethylsulfonamidophenoxy)-2,2-dimethylpropane] | 44.6 µM | 11.6 µM | 42 µM | –
16 | O=S(=O)(Nc1ccc(OCCCOc2ccc(NS(=O)(=O)C(F)(F)F)cc2)cc1)C(F)(F)F [Example 69, 1,3-Bis(4-trifluoromethylsulfonamidophenoxy)propane] | 78.9 µM | 41.7 µM | 37 µM | –
17 | O=S(=O)(Nc1ccc(OCCCCOc2ccc(NS(=O)(=O)C(F)(F)F)cc2)cc1)C(F)(F)F [Example 70, 1,4-Bis(4-trifluoromethylsulfonamidophenoxy)butane] | 85 µM | 38.1 µM | 65.3 µM | –
18 | O=S(=O)(Nc1ccc(Oc2ccc(Oc3ccc(NS(=O)(=O)C(F)(F)F)cc3)cc2)cc1)C(F)(F)F [Example 71, 1,4-Bis(4-trifluoromethylsulfonamidophenoxy)benzene] | 10.6 µM | 44 µM | – | IC50 (PTP 1B; comparison of R groups, read-out: IC50 1B): 10.6 µM; IC50 (PTP SIGMA; comparison of R groups, read-out: IC50 Sigma): 44 µM; IC50 (PTP MU; comparison of R groups, read-out: IC50 Mu): 4 µM
19 | O=S(=O)(Nc1ccc(Oc2ccc(NS(=O)(=O)C(F)(F)F)cc2)cc1)C(F)(F)F [Example 73, Bis(4-trifluoromethylsulfonamidophenyl) ether] | > 100 µM | > 100 µM | 76.1 µM | –
